Experimental data taken from the SangsterLogP compilation.

Experiment: method code SF, from DOI: 10.1007/bf00302523

SMILES | logP
COP(=S)(OC)Oc1ccc([N+](=O)[O-])c(Cl)c1 | 3.45
COP(=O)(OC)Oc1ccc([N+](=O)[O-])c(Cl)c1 | 1.83
COP(=S)(OC)Oc1ccc([N+](=O)[O-])c(C)c1 | 3.3
COP(=S)(OC)Oc1ccc([N+](=O)[O-])c(C(C)C)c1 | 4.05
COP(=S)(OC)Oc1ccc([N+](=O)[O-])cc1Cl | 3.44
COP(=O)(OC)Oc1ccc([N+](=O)[O-])cc1Cl | 1.84
COP(=S)(OC)Oc1cc(C)c([N+](=O)[O-])c(C)c1 | 3.89
COP(=O)(OC)Oc1ccc([N+](=O)[O-])c(C)c1 | 1.69
CCc1cc(OP(=O)(OC)OC)ccc1[N+](=O)[O-] | 2.19
COP(=O)(OC)Oc1cc(C)c([N+](=O)[O-])c(C)c1 | 2.26
CCc1cc(OP(=S)(OC)OC)ccc1[N+](=O)[O-] | 3.74
COP(=O)(OC)Oc1ccc([N+](=O)[O-])c(C(C)C)c1 | 2.57
